Marks after values point to notes of the source that are not given here.
Key:
[1] = tested on: Candida albicans X657; assay: In vitro agar-diffusion test; type: cell-based
Description: (§1) The activity of scytophycin compounds against pathogenic fungi in standard in vitro agar-diffusion tests, using ¼"(6mm) discs holding ~30 µL of test solution, is illustrated in Tables 6-12.

[2] = tested on: Neurospora crassa X846; assay: In vitro agar-diffusion test; type: cell-based
Description: as §1

[3] = tested on: Pythium ultimum X751; assay: In vitro agar-diffusion test; type: cell-based
Description: as §1

[4] = tested on: Saccharomyces pastorianus X52; assay: In vitro agar-diffusion test; type: cell-based; parameters: key: T = trace
Description: as §1

[5] = tested on: Rhizoctonia solani X767; assay: In vitro agar-diffusion test; type: cell-based
Description: as §1

[6] = tested on: Sclerotina homoeocarpa X768; assay: In vitro agar-diffusion test; type: cell-based
Description: as §1

[7] = tested on: NIH/3T3 mouse fibroblast; assay: Cytotoxicity, minimum toxic dose (method of Furusawa and Cutting); type: cell-based; details: NIH/3T3 mouse fibroblast cell line
Description: (§2) The scytophycin compounds are potent cytotoxins. For example, the minimum toxic doses of scytophycins A and B against KB human epidermoid carcinoma and NIH/3T3 mouse fibroblast cell lines were determined to be 1 ng/mL and 0.65 ng/mL, respectively, using methods described by E. Furusawa and W. Cutting in Ann. New York Acad. Sci. 173, 669-679 (1970).

[8] = tested on: KB human epidermoid carcinoma; assay: as above; type: cell-based; details: KB human epidermoid carcinoma cell line
Description: as §2

[9] = tested on: Lewis Lung Carcinoma; assay: Survival of mice with intraperitoneally implanted tumor; type: in vivo, BDF1 Mice; details: for % T/C / Mean Survival Time, Days Treated: LLC, 9 days of treatment
Description: (§3) Female hybrid BDF1 (DBA/2 x C57BL/6) mice were used for the evaluation of the scytophycins against the three tumors. The mice were first inoculated intraperitoneally with 10⁶ cells of P388 ascites leukemia (P388), 2 to 6 x 10⁵ cells of Lewis lung carcinoma (LLC) homogenate, or 0.3 mL of 20% homogenate of B16 tumor (B16) masses. Drug treatment was started the next day (day 1) and continued daily for 6-9 days.

[10] = tested on: P388 Lymphocytic Leukemia; assay: as above; type: in vivo, BDF1 Mice
Description: as §3

[11] = tested on: B16 Melanoma; assay: as above; type: in vivo, BDF1 Mice
Description: as §3

[12] = type: in vivo; details: mice, administered IP
Description: At sublethal doses, the scytophycin compounds are antineoplastic agents. The minimum lethal dose of scytophycin B in mice, when administered IP, is about 650 µg/kg.

[13] = P388, 0.5 µg/Mouse, 8 days of treatment
[14] = P388, 0.65 µg/Mouse, 8 days of treatment
[15] = P388, 1 µg/Mouse, 8 days of treatment
[16] = P388, 2 µg/Mouse, 8 days of treatment
[17] = P388, 3.25 µg/Mouse, 6 days of treatment
[18] = P388, 4 µg/Mouse, 8 days of treatment
[19] = B16, 2 µg/Mouse, 8 days of treatment
[20] = B16, 4 µg/Mouse, 8 days of treatment
[21] = B16, 8 µg/Mouse, 8 days of treatment

Which “Size of Zone of Inhibition (mm)” value ([1]; Table 8, 0.33 mg/mL) does the source give for Scytophycin D here?
Its value is 14 mm.

What about the “Size of Zone of Inhibition (mm)” value ([1]; Table 8, 1 mg/mL) of the same substance?
The value was 19 mm.

And the “Size of Zone of Inhibition (mm)” value ([2]; Table 8, 0.33 mg/mL)?
The value was 20 mm.

And the “Size of Zone of Inhibition (mm)” value ([2]; Table 8, 1 mg/mL)?
Its value is 25 mm.

And the “Size of Zone of Inhibition (mm)” value ([3]; Table 11, 0.33 mg/mL)?
Its value is 24 mm.

And the “Size of Zone of Inhibition (mm)” value ([3]; Table 11, 1.0 mg/mL)?
Its value is 27 mm.

What about the “Size of Zone of Inhibition (mm)” value ([4]; Table 8, 0.33 mg/mL) of the same substance?
The value was “T^a”.

And the “Size of Zone of Inhibition (mm)” value ([4]; Table 8, 1 mg/mL)?
Its value is 12 mm.

And the “Size of Zone of Inhibition (mm)” value ([5]; Table 11, 0.33 mg/mL)?
Its value is 22 mm.

What about the “Size of Zone of Inhibition (mm)” value ([5]; Table 11, 1.0 mg/mL) of the same substance?
The value was 30 mm.

And the “Size of Zone of Inhibition (mm)” value ([6]; Table 11, 0.33 mg/mL)?
The value was 20 mm.

And the “Size of Zone of Inhibition (mm)” value ([6]; Table 11, 1.0 mg/mL)?
Its value is 26 mm.

Which minimum toxic dose [7] does the source give for Scytophycin B here?
Its minimum toxic dose is 0.65 ng/mL.

And the minimum toxic dose [8]?
Its minimum toxic dose is 0.65 ng/mL.

And the “% T/C” value ([9]; 0.5 µg/Mouse)?
Its value is 106%.

What about the “Mean Survival Time, Days Treated” value ([9]; 0.5 µg/Mouse) of the same substance?
The value was 10.4 days.

What about the “% T/C” value ([9]; 1 µg/Mouse) of the same substance?
The value was 114%.

What about the “Mean Survival Time, Days Treated” value ([9]; 1 µg/Mouse) of the same substance?
The value was 11.2 days.

What about the “% T/C” value ([9]; 2 µg/Mouse) of the same substance?
The value was 124%.

And the “Mean Survival Time, Days Treated” value ([9]; 2 µg/Mouse)?
The value was 12.2 days.

And the “% T/C” value ([9]; 4 µg/Mouse)?
Its value is 129%.

And the “Mean Survival Time, Days Treated” value ([9]; 4 µg/Mouse)?
Its value is 12.6 days.

What about the “activity against intraperitoneally implanted tumor” value (“activity” below) ([9]; Lewis lung carcinoma, result in words) of the same substance?
The value was “moderate activity”.

What about the “% T/C” value [10, 13] of the same substance?
The value was 100%.

And the “Mean Survival Time, Days Treated” value [10, 13]?
Its value is 9.4 days.

And the “% T/C” value [10, 14]?
Its value is 125%.

And the “Mean Survival Time, Days Treated” value [10, 14]?
The value was 10.0 days.

And the “% T/C” value [10, 15]?
The value was 113%.

And the “Mean Survival Time, Days Treated” value [10, 15]?
Its value is 10.6 days.

What about the “% T/C” value [10, 16] of the same substance?
Its value is 130%.

What about the “Mean Survival Time, Days Treated” value [10, 16] of the same substance?
The value was 12.2 days.

And the “% T/C” value [10, 17]?
The value was 136%.

And the “Mean Survival Time, Days Treated” value [10, 17]?
The value was 11.4 days.

What about the “% T/C” value [10, 18] of the same substance?
The value was 128%.

What about the “Mean Survival Time, Days Treated” value [10, 18] of the same substance?
Its value is 12.0 days.

What about the “activity” value ([10]; P388 lymphocytic leukemia, result in words) of the same substance?
Its value is “moderate activity”.

And the “% T/C” value [11, 19]?
The value was 102%.

What about the “Mean Survival Time, Days Treated” value [11, 19] of the same substance?
Its value is 19.4 days.

And the “% T/C” value [11, 20]?
Its value is 104%.

What about the “Mean Survival Time, Days Treated” value [11, 20] of the same substance?
Its value is 19.8 days.

What about the “% T/C” value [11, 21] of the same substance?
The value was 63%.

What about the “Mean Survival Time, Days Treated” value [11, 21] of the same substance?
Its value is 12.0 days.

And the “toxicity remark in % T/C column” value [11, 21]?
Its value is “toxic”.

And the “activity” value ([11]; B16 melanoma, result in words)?
Its value is “did not exhibit activity”.

What about the minimum lethal dose [12] of the same substance?
Its minimum lethal dose is “about 650 µg/kg”.

And the “inhibition of fungal pathogen” value ([1]; Candida albicans, general statement in words)?
Its value is “inhibit”.

And the “Size of Zone of Inhibition (mm)” value ([1]; Table 7, 0.01 mg/mL)?
Its value is 21 mm.

What about the “Size of Zone of Inhibition (mm)” value ([1]; Table 7, 0.1 mg/mL) of the same substance?
Its value is 22 mm.

What about the “Size of Zone of Inhibition (mm)” value ([1]; Table 7, 1 mg/mL) of the same substance?
The value was 26 mm.

What about the “Size of Zone of Inhibition (mm)” value ([1]; Table 8, 0.33 mg/mL) of the same substance?
The value was 25 mm.

What about the “Size of Zone of Inhibition (mm)” value ([1]; Table 8, 1 mg/mL) of the same substance?
Its value is 31 mm.

What about the “Size of Zone of Inhibition (mm)” value ([2]; Table 7, 0.01 mg/mL) of the same substance?
Its value is 30 mm.

What about the “Size of Zone of Inhibition (mm)” value ([2]; Table 7, 0.1 mg/mL) of the same substance?
Its value is 27 mm.

And the “Size of Zone of Inhibition (mm)” value ([2]; Table 7, 1 mg/mL)?
The value was 32 mm.

And the “Size of Zone of Inhibition (mm)” value ([2]; Table 8, 0.33 mg/mL)?
Its value is 36 mm.

What about the “Size of Zone of Inhibition (mm)” value ([2]; Table 8, 1 mg/mL) of the same substance?
Its value is 36 mm.

What about the “Zone of Inhibition Size” value ([3]; Table 6, level 1 mg/mL) of the same substance?
The value was 37 mm.

What about the “Size of Zone of Inhibition (mm)” value ([3]; Table 10, 0.01 mg/mL) of the same substance?
Its value is 30 mm.

What about the “Size of Zone of Inhibition (mm)” value ([3]; Table 10, 0.1 mg/mL) of the same substance?
The value was 30^a mm.

What about the “Size of Zone of Inhibition (mm)” value ([3]; Table 10, 1.0 mg/mL) of the same substance?
The value was 30^a mm.

What about the “Size of Zone of Inhibition (mm)” value ([3]; Table 11, 0.33 mg/mL) of the same substance?
Its value is 30 mm.

What about the “Size of Zone of Inhibition (mm)” value ([3]; Table 11, 1.0 mg/mL) of the same substance?
Its value is 30 mm.

What about the “Size of Zone of Inhibition (mm)” value ([4]; Table 7, 0.01 mg/mL) of the same substance?
Its value is 20 mm.

And the “Size of Zone of Inhibition (mm)” value ([4]; Table 7, 0.1 mg/mL)?
The value was 20 mm.

What about the “Size of Zone of Inhibition (mm)” value ([4]; Table 7, 1 mg/mL) of the same substance?
The value was 27 mm.

What about the “Size of Zone of Inhibition (mm)” value ([4]; Table 8, 0.33 mg/mL) of the same substance?
The value was 24 mm.

And the “Size of Zone of Inhibition (mm)” value ([4]; Table 8, 1 mg/mL)?
Its value is 24 mm.

What about the “Size of Zone of Inhibition (mm)” value ([5]; Table 10, 0.01 mg/mL) of the same substance?
The value was 30 mm.

What about the “Size of Zone of Inhibition (mm)” value ([5]; Table 10, 0.1 mg/mL) of the same substance?
The value was over 30 mm.

What about the “Size of Zone of Inhibition (mm)” value ([5]; Table 10, 1.0 mg/mL) of the same substance?
The value was over 30 mm.

What about the “Size of Zone of Inhibition (mm)” value ([5]; Table 11, 0.33 mg/mL) of the same substance?
Its value is 40 mm.

What about the “Size of Zone of Inhibition (mm)” value ([5]; Table 11, 1.0 mg/mL) of the same substance?
The value was 46^a mm.

What about the “Size of Zone of Inhibition (mm)” value ([6]; Table 10, 0.01 mg/mL) of the same substance?
The value was over 30 mm.

What about the “Size of Zone of Inhibition (mm)” value ([6]; Table 10, 0.1 mg/mL) of the same substance?
Its value is over 30 mm.

What about the “Size of Zone of Inhibition (mm)” value ([6]; Table 10, 1.0 mg/mL) of the same substance?
Its value is over 30 mm.

And the “Size of Zone of Inhibition (mm)” value ([6]; Table 11, 0.33 mg/mL)?
Its value is 40 mm.

And the “Size of Zone of Inhibition (mm)” value ([6]; Table 11, 1.0 mg/mL)?
Its value is 44 mm.

Which results are given for Scytophycin C?
Size of Zone of Inhibition (mm) ([1]; Table 9, 1 mg/mL): 22 mm; Size of Zone of Inhibition (mm) ([2]; Table 9, 1 mg/mL): 30 mm; Size of Zone of Inhibition (mm) ([3]; Table 12, 0.5 mg/mL): 12^a mm; Size of Zone of Inhibition (mm) ([4]; Table 9, 1 mg/mL): 17 mm; Size of Zone of Inhibition (mm) ([5]; Table 12, 0.5 mg/mL): 30 mm; Size of Zone of Inhibition (mm) ([6]; Table 12, 0.5 mg/mL): 32 mm
